Source: patent publication US12121522B2, “Methods of treating cancer with an mTOR inhibitor” (Revolution Medicines, Inc., priority 2022, dated 2024)
pEC50: −log10 of the molar value.

Key:
tumor p4EBP1 = assay: PK-pharmacodynamics of tumor p4EBP1 and pS6RP in MCF7 tumor-bearing mice; assay type: in vivo, mouse
Text: FIGS. 4A-4C show Pharmacokinetic-Pharmacodynamic Profile for RMC-5552 Modulation of Tumor p4EBP1 and pS6RP in MCF7 Tumor Bearing Athymic Nude Mice. Abbreviations: IP=intraperitoneal; p4EBP1=phosphorylated eukaryotic translation initiation factor 4E-binding protein 1; PK=pharmacokinetic; pS6RP=phosphorylated S6 ribosomal protein; u=unbound. […] Data represent means±standard errors (n=3).
Colors of symbols denote time of tissue harvest following IP administration of a single dose of RMC-5552. […] Data represent means standard errors (n=3).
The in vivo PK-pharmacodynamic relationship for inhibition of activated mTOR pathway signaling of RMC-5552 as a single agent was determined in the breast cancer MCF7 and HCC-1954 PIK3CA mutant CDX models.
Consistent with inhibition of mTORC1 signaling in vitro, IP administration of RMC-5552 to nude mice produced a dose and plasma concentration-dependent-inhibition of tumor p4EBP1 and pS6RP (a direct substrate of P70S6K) in PI3K mutant breast cancer MCF7 xenograft models FIG. 5. Inhibition of p4EBP1 was maximal at 24 to 48 hours after treatment.

Mouse plasma exposure = assay type: in vivo; details: fu 0.001-0.004
[1] = Clinical plasma PK, study RMC-5552-001; assay type: in vivo, human
Text: The plasma PK of RMC-5552 in subjects was characterized after single- and repeat-dose administration via IV infusion. […] Sparse PK samples were collected on other visit days as indicated in the clinical study protocol, including End of Infusion (EOI) samples on Cycle 1 Day 8 (C1D8), Cycle 2 Day 1 (C2D1), Cycle 3 Day 1 (C3D1), and Cycle 4 Day 1 ([…]) to approximate maximum concentration (Cmax). The plasma PK of RMC-5552 in subjects was characterized after single- and repeat dose administration via intravenous (IV) infusion. […] Sparse PK samples were collected on other visit days as indicated in the clinical study protocol, including EOI samples on C1D8, C2D1, C3D1, and […] to approximate Cmax. […] AUC0-last value was not calculated on C1D8, C2D1, C3D1, or […] due to limited PK time points (pre-dose and EOI).

ctDNA (mean VAF) = assay: ctDNA molecular response (Guardant Health algorithm); assay type: in vivo, human
Procedure: The mean±SEM of fractional change in mean VAF from C1D1 to C3D1 was determined by the Guardant Health Molecular Response Algorithm. […] Change in ctDNA is presented as mean±SEM of % change in mean VAF from C1D1 to C3D1. […] The results presented in FIGS. 8 and 9, supported by preclinical data, indicate that the dose range of 6 mg to 12 mg represents a “steep” dose-exposure-response relationship.

CO[C@H]1C[C@@H]2CC[C@@H](C)[C@@](O)(O2)C(=O)C(=O)N2CCCC[C@H]2C(=O)O[C@H]([C@H](C)C[C@@H]2CC[C@@H](OC(=O)NCCOCCOCCOCCOCCOCCOCCOCCOCCC(=O)N3CCc4cc(Cn5nc(-c6ccc7oc(N)nc7c6)c6c(N)ncnc65)ccc4C3)[C@H](OC)C2)C[C@@H](O)[C@H](C)/C=C(\C)[C@@H](O)[C@@H](OC)C(=O)[C@H](C)C[C@H](C)/C=C/C=C/C=C/1C [RMC-5552]
maximum level of inhibition of p4EBP1 relative to control (tumor p4EBP1; MCF7, single IP dose): > 90%
pEC50 (tumor p4EBP1; unbound plasma concentration, MCF7, read-out: in vivo EC50 for inhibition of p4EBP1): 9.66
Unbound AUC0-last, mean mouse exposure (Mouse plasma exposure; 1 mg/kg): 0.021 to 0.084 µM·h
Unbound Cmax, mean mouse exposure (Mouse plasma exposure; 1 mg/kg): 2 to 8 nM
Unbound AUC0-last, mean mouse exposure (Mouse plasma exposure; 3 mg/kg): 0.053 to 0.21 µM·h
Unbound Cmax, mean mouse exposure (Mouse plasma exposure; 3 mg/kg): 3.7 to 14.7 nM
Mean Accumulation Ratio (AUC0-last on D15/D1) ([1]; 1.6 mg): 2.4
Cmax ([1]; 1.6 mg 1-h IV inf, C1D1): 21.6 nM
Mean AUC0-last ([1]; 1.6 mg, C1D1): 0.0297 µM·h
Mean Dose Normalized AUC0-last ([1]; 1.6 mg, C1D1): 18.6 nM·h/mg
Mean Unbound AUC0-last ([1]; 1.6 mg, C1D1): 0.0017 µM·h
Mean Unbound Cmax ([1]; 1.6 mg, C1D1): 1.2 nM
Cmax ([1]; 1.6 mg, C1D15): 35.3 nM
Mean AUC0-last ([1]; 1.6 mg, C1D15): 0.0555 µM·h
Mean Dose Normalized AUC0-last ([1]; 1.6 mg, C1D15): 34.7 nM·h/mg
Mean Unbound AUC0-last ([1]; 1.6 mg, C1D15): 0.0032 µM·h
Mean Unbound Cmax ([1]; 1.6 mg, C1D15): 2.0 nM
Cmax ([1]; 1.6 mg, C2D1 (EOI)): 24.7 nM
Mean Unbound Cmax ([1]; 1.6 mg, C2D1 (EOI)): 1.4 nM
Mean Accumulation Ratio (AUC0-last on D15/D1) ([1]; 3 mg): 2.1
Cmax ([1]; 3 mg 1-h IV inf, C1D1): 32 nM
Mean AUC0-last ([1]; 3 mg, C1D1): 0.0439 µM·h
Mean Dose Normalized AUC0-last ([1]; 3 mg, C1D1): 14.6 nM·h/mg
Mean Unbound AUC0-last ([1]; 3 mg, C1D1): 0.0025 µM·h
Mean Unbound Cmax ([1]; 3 mg, C1D1): 1.8 nM
Cmax ([1]; 3 mg, C1D15): 67.5 nM
Mean AUC0-last ([1]; 3 mg, C1D15): 0.0875 µM·h
Mean Dose Normalized AUC0-last ([1]; 3 mg, C1D15): 29.2 nM·h/mg
Mean Unbound AUC0-last ([1]; 3 mg, C1D15): 0.005 µM·h
Mean Unbound Cmax ([1]; 3 mg, C1D15): 3.8 nM
Cmax ([1]; 3 mg, C2D1 (EOI)): 74.2 nM
Mean Unbound Cmax ([1]; 3 mg, C2D1 (EOI)): 4.2 nM
Mean Accumulation Ratio (AUC0-last on D15/D1) ([1]; 6 mg): 1.6
Cmax ([1]; 6 mg 1-h IV inf, C1D1): 101 nM
Mean AUC0-last ([1]; 6 mg, C1D1): 0.137 µM·h
Mean Dose Normalized AUC0-last ([1]; 6 mg, C1D1): 22.1 nM·h/mg
Mean Unbound AUC0-last ([1]; 6 mg, C1D1): 0.0078 µM·h
Mean Unbound Cmax ([1]; 6 mg, C1D1): 5.8 nM
Mean t1/2 ([1]; 6 mg, C1D1): 8.1 h
Unbound AUC0-last (Table 3) ([1]; 6 mg, C1D1): 0.0078 µM·h
Unbound Cmax (Table 3) ([1]; 6 mg, C1D1): 5.6 nM
Cmax ([1]; 6 mg, C1D8 (EOI)): 150 nM
Mean Unbound Cmax ([1]; 6 mg, C1D8 (EOI)): 8.5 nM
Cmax ([1]; 6 mg, C1D15): 155 nM
Mean AUC0-last ([1]; 6 mg, C1D15): 0.219 µM·h
Mean Dose Normalized AUC0-last ([1]; 6 mg, C1D15): 36.6 nM·h/mg
Mean Unbound AUC0-last ([1]; 6 mg, C1D15): 0.0125 µM·h
Mean Unbound Cmax ([1]; 6 mg, C1D15): 8.9 nM
Mean t1/2 ([1]; 6 mg, C1D15): 8.2 h
Unbound AUC0-last (Table 3) ([1]; 6 mg, C1D15): 0.0121 µM·h
Unbound Cmax (Table 3) ([1]; 6 mg, C1D15): 8.7 nM
Cmax ([1]; 6 mg, C2D1 (EOI)): 159 nM
Mean Unbound Cmax ([1]; 6 mg, C2D1 (EOI)): 9.1 nM
Cmax ([1]; 6 mg, C3D1 (EOI)): 187 nM
Mean Unbound Cmax ([1]; 6 mg, C3D1 (EOI)): 10.7 nM
Cmax ([1]; 6 mg, C4D1 (EOI)): 220 nM
Mean Unbound Cmax ([1]; 6 mg, C4D1 (EOI)): 12.5 nM
Mean Accumulation Ratio (AUC0-last on D15/D1) ([1]; 8 mg): 2.6
Cmax ([1]; 8 mg 1-h IV inf, C1D1): 152 nM
Mean AUC0-last ([1]; 8 mg, C1D1): 0.219 µM·h
Mean Dose Normalized AUC0-last ([1]; 8 mg, C1D1): 27.4 nM·h/mg
Mean Unbound AUC0-last ([1]; 8 mg, C1D1): 0.0125 µM·h
Mean Unbound Cmax ([1]; 8 mg, C1D1): 8.6 nM
Mean t1/2 ([1]; 8 mg, C1D1): 11.4 h
Unbound AUC0-last (Table 3) ([1]; 8 mg, C1D1): 0.0117 µM·h
Unbound Cmax (Table 3) ([1]; 8 mg, C1D1): 8.6 nM
Cmax ([1]; 8 mg, C1D8 (EOI)): 242 nM
Mean Unbound Cmax ([1]; 8 mg, C1D8 (EOI)): 13.8 nM
Cmax ([1]; 8 mg, C1D15): 340 nM
Mean AUC0-last ([1]; 8 mg, C1D15): 0.466 µM·h
Mean Dose Normalized AUC0-last ([1]; 8 mg, C1D15): 58.3 nM·h/mg
Mean Unbound AUC0-last ([1]; 8 mg, C1D15): 0.0266 µM·h
Mean Unbound Cmax ([1]; 8 mg, C1D15): 19.4 nM
Mean t1/2 ([1]; 8 mg, C1D15): 10.6 h
Unbound AUC0-last (Table 3) ([1]; 8 mg, C1D15): 0.0266 µM·h
Unbound Cmax (Table 3) ([1]; 8 mg, C1D15): 20.1 nM
Cmax ([1]; 8 mg, C2D1 (EOI)): 282 nM
Mean Unbound Cmax ([1]; 8 mg, C2D1 (EOI)): 16.1 nM
Cmax ([1]; 8 mg, C3D1 (EOI)): 295 nM
Mean Unbound Cmax ([1]; 8 mg, C3D1 (EOI)): 16.8 nM
Cmax ([1]; 8 mg, C4D1 (EOI)): 208 nM
Mean Unbound Cmax ([1]; 8 mg, C4D1 (EOI)): 11.8 nM
Cmax ([1]; 10 mg 2-h IV inf, C1D1): 115 nM
Mean Accumulation Ratio (AUC0-last on D15/D1) ([1]; 10 mg 2-h inf): 1.7
Mean AUC0-last ([1]; 10 mg 2-h inf, C1D1): 0.366 µM·h
Mean Dose Normalized AUC0-last ([1]; 10 mg 2-h inf, C1D1): 36.6 nM·h/mg
Mean Unbound AUC0-last ([1]; 10 mg 2-h inf, C1D1): 0.0209 µM·h
Mean Unbound Cmax ([1]; 10 mg 2-h inf, C1D1): 6.6 nM
Mean t1/2 ([1]; 10 mg 2-h inf, C1D1): 13.5 h
Cmax ([1]; 10 mg 2-h inf, C1D15): 181 nM
Mean AUC0-last ([1]; 10 mg 2-h inf, C1D15): 0.527 µM·h
Mean Dose Normalized AUC0-last ([1]; 10 mg 2-h inf, C1D15): 52.7 nM·h/mg
Mean Unbound AUC0-last ([1]; 10 mg 2-h inf, C1D15): 0.03 µM·h
Mean Unbound Cmax ([1]; 10 mg 2-h inf, C1D15): 10.3 nM
Mean t1/2 ([1]; 10 mg 2-h inf, C1D15): 4.2 h
Cmax ([1]; 10 mg 2-h inf, C2D1): 290 nM
Mean Unbound Cmax ([1]; 10 mg 2-h inf, C2D1): 16.5 nM
Unbound AUC0-last (Table 3) ([1]; 10 mg, C1D1, N=2): 0.0142 µM·h
Unbound Cmax (Table 3) ([1]; 10 mg, C1D1, N=2): 11 nM
Cmax ([1]; 12 mg 1-h IV inf, C1D1): 396 nM
Mean AUC0-last ([1]; 12 mg, C1D1): 0.49 µM·h
Mean Dose Normalized AUC0-last ([1]; 12 mg, C1D1): 40.9 nM·h/mg
Mean Unbound AUC0-last ([1]; 12 mg, C1D1): 0.028 µM·h
Mean Unbound Cmax ([1]; 12 mg, C1D1): 22.6 nM
Mean t1/2 ([1]; 12 mg, C1D1): 8.3 h
Unbound AUC0-last (Table 3) ([1]; 12 mg, C1D1, N=2): 0.0282 µM·h
Unbound Cmax (Table 3) ([1]; 12 mg, C1D1, N=2): 22.6 nM
exposure (Cmax and AUC0-last) on C1D15 relative to C1D1 ([1]; weekly repeat dosing, 1.6 to 8 mg): about 2 fold
decrease in VAF (ctDNA (mean VAF); 67F NSCLC STK11, TSC2, KRAS L19F, 8 mg QW): reduction in lesion; 31%
MR (molecular response) (ctDNA (mean VAF); endometrial PIK3CA, PTEN, TSC2, 8 mg QW): SD; MR 64%
subjects with molecular response (ctDNA (mean VAF); of 6 subjects with SD as best response and a pathogenic mTOR pathway variant): 3
molecular response (ctDNA (mean VAF); one subject on 12 mg initial dose): effective molecular complete response
MR (molecular response) (ctDNA (mean VAF); uterine CaSarc TSC1 LOF, 10 mg single dose, 6 mg QW): 91%
